The values that follow come from ChEMBL document CHEMBL1201862, “PubChem BioAssay data set” (2004).

The target in test [1] is T1, Tyrosine-protein phosphatase non-receptor type 7 (Homo sapiens, UniProt P35236).
T1 sequence (P35236 whole entry): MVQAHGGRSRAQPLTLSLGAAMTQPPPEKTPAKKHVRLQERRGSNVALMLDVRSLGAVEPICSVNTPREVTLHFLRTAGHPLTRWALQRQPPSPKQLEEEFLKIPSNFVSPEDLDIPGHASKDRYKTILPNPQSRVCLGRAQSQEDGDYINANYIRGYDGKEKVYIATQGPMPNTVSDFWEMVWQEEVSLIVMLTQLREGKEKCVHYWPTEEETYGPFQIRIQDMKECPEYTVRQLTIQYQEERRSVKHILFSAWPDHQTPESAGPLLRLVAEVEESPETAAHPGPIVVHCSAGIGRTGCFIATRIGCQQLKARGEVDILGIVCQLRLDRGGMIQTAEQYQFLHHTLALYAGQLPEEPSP
The experiment in a line: redox-active compounds inhibiting HePTP phosphatase – biochemical, fluorescence, mechanism study (AID 2068). Type of test: functional.

The target of test [2] is Dual specificity protein phosphatase 3 (Homo sapiens, UniProt P51452). As to the kind of experiment: SAR VHR1 Fluorescent Assay for In Vitro dose response studies Set 2. [Related pubchem assays (depositor defined):AID1654, AID1661, AID1878]. Type of test: functional.
Dual specificity protein phosphatase 3, sequence (P51452 whole entry): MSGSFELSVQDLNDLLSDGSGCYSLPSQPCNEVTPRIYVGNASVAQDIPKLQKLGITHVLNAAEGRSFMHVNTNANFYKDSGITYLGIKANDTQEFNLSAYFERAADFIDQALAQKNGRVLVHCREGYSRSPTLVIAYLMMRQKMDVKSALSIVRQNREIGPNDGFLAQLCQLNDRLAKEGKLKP
Test [3] addresses Dual specificity protein phosphatase 6 (Rattus norvegicus, UniProt Q64346). In kind it is functional.
Test [4] is described as follows: viability of uninfected HEp-2 cells – cell-based, HTS, cytotoxicity control for RSV inhibitor project, dose response (AID 2410). As to conditions: human respiratory syncytial virus. In kind it is functional.
In the next test the test system is Streptococcus. The experiment in a line: GAS UMAA2166 growth inhibition – luminescence, BacTiterGlo, counter-screen for streptokinase expression inhibitor project, dose response (AID 1915).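 Note: potency for reduction of bacterial viability or growth.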 In kind it is functional, organism-based.
Another test concerns the target T2, Streptokinase A (Streptococcus pyogenes serotype M1, UniProt P10520).
T2 sequence (P10520 whole entry): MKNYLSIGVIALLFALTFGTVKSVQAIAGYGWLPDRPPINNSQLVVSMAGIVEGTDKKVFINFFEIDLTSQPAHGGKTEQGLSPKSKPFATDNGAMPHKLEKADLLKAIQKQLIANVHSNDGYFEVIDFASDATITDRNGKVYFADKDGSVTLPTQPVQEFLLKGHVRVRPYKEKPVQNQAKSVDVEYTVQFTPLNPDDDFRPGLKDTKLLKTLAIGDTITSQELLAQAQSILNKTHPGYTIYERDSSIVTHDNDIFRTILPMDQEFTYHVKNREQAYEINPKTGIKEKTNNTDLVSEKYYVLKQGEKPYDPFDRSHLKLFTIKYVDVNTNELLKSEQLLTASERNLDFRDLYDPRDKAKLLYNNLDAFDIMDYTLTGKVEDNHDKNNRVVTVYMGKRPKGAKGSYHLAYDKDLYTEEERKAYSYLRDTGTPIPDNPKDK
The experiment in a line: viability-normalized secreted streptokinase activity reduction – plasminogen activation absorbance, OD405, dose response (AID 1914).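 Note: secreted streptokinase activity via plasminogen activation per viability signal from cell pellet.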 In kind it is functional, Streptococcus pyogenes M1 GAS.

In test [5] the test system is Streptococcus sp. 'group A'. The experiment in a line: Streptococcus pyogenes SK(-)GAS viability under kanamycin – luminescence, BacTiterGlo, confirmation, counter-screen for streptokinase expression inhibitor project, dose response (AID 1900). In kind it is functional, organism-based. In general terms: A counterscreen serves to expose hits that act by an unwanted route or on another target.

A short description of test [6]: viability loss of HMLE_sh_eGFP cells – cell-based, luminescence, counter-screen for HMLE_sh_ECad selective toxicity project, dose response (AID 463074).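 Note: HMLE human mammary epithelial cells expressing control shRNA against eGFP.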 Type of test: functional, Homo sapiens.
Test [7] is described as follows: Luminescence Cell-Based Dose Retest to Confirm Inhibitors of Cancer Stem Cells. [Related pubchem assays (depositor defined):AID2717, AID2721]. As to conditions: Homo sapiens. In kind it is functional.
The next test has as its system Candida albicans. The experiment in a line: antifungal activity against resistant Candida strain – CaCi-8, fluconazole, Alamar Blue, dry powder, dose response (AID 488807). In kind it is functional, organism-based. For orientation: The colour change of resazurin is a common sign of viable cells or microbes.
The target of test [8] is T3, Intestinal-type alkaline phosphatase (Homo sapiens, UniProt P09923). As to the kind of experiment: human intestinal alkaline phosphatase activators, dose response, biochemical, luminescence, uHTS hits (AID 463120). Type of test: functional.
T3 sequence (P09923 whole entry): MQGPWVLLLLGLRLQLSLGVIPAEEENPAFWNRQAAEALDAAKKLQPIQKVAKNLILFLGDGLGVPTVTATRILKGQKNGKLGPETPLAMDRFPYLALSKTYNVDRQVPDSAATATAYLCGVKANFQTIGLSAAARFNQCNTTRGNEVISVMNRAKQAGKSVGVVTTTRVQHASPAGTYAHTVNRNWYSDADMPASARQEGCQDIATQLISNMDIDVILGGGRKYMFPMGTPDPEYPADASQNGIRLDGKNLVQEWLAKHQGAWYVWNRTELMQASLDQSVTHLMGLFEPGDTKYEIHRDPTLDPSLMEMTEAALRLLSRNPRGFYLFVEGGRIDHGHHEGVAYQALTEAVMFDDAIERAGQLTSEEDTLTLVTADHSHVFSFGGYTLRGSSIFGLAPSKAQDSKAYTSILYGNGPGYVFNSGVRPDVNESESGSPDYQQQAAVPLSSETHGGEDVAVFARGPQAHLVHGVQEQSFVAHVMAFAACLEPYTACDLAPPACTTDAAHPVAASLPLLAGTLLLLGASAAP
Test [9] addresses Intestinal-type alkaline phosphatase (Mus musculus, UniProt P24822). As to the kind of experiment: PubChem AID 488875. Type of test: functional.
For test [10], the target named is T3, Intestinal-type alkaline phosphatase. The experiment in a line: activation of human intestinal alkaline phosphatase – biochemical, luminescent, uHTS hits, set 2, dose response (AID 488817).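 Note: potency of activators that raise enzyme activity.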 In kind it is functional.
Test [11] deals with T4, Alkaline phosphatase, tissue-nonspecific isozyme (Homo sapiens, UniProt P05186).
T4 sequence (P05186 whole entry): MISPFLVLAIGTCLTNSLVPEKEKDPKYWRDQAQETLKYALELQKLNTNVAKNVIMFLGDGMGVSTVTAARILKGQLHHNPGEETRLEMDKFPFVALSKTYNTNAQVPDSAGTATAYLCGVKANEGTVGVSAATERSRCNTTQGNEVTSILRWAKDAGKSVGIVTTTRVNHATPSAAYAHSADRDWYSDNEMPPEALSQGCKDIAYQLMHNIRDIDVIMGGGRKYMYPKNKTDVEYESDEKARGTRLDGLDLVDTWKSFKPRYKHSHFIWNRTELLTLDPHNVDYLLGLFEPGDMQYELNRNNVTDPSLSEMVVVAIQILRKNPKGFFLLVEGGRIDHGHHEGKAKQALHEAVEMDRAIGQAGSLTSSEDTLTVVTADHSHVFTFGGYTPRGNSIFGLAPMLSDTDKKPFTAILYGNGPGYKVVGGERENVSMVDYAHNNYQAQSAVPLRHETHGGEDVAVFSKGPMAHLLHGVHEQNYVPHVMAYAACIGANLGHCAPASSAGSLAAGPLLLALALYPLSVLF
As to the kind of experiment: activation of tissue-nonspecific alkaline phosphatase – biochemical, TNAP isozyme, human IAP uHTS hits, selectivity assay for human IAP activator project, dose response (AID 488886).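 Note: potency of compounds raising TNAP activity as a selectivity check on IAP activators.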 Type of test: functional.

For test [12], the target named is T5, High affinity choline transporter 1 (Homo sapiens, UniProt Q9GZV3).
T5 sequence (Q9GZV3 whole entry): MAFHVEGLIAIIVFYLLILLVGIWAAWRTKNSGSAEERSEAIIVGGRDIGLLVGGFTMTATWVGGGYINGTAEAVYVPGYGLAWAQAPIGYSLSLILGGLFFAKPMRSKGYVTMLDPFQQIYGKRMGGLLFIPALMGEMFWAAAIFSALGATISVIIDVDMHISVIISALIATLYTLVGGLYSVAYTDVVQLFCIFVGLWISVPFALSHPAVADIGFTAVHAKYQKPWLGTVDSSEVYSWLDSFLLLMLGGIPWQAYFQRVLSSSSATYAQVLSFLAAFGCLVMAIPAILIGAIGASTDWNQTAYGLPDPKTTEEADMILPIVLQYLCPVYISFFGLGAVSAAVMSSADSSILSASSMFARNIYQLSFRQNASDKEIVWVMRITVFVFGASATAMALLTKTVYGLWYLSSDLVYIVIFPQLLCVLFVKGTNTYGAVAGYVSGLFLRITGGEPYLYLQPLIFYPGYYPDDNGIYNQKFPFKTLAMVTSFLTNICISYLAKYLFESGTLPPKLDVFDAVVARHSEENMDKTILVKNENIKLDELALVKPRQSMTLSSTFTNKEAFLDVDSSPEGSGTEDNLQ
As to the kind of experiment: human choline transporter blockers, potency – cell-based, 5-point CRC, membrane potential dye, dose response (AID 504840). In kind it is functional.

Test [13] can be described thus: restored growth of temperature-sensitive Burl-1 yeast – whole organism, S. cerevisiae, Burl-1 ts mutant, luminescence, counter-screen for SUMOylation pathway inhibitor project, dose response (AID 463199). In kind it is functional.
Test [14] concerns the target FAD-linked sulfhydryl oxidase ALR (Homo sapiens, UniProt P55789). The experiment in a line: ALR-catalysed DTT oxidation blockers – biochemical, H2O2 detection, luminescence, cherry-pick, dose response (AID 493248).
The next test relates to MDCK. As to the kind of experiment: antiviral activity against H1N1 influenza, dose response, cell-based, strain KY136 (AID 540257). In kind it is functional. Particulars: Canis lupus familiaris.
For the next test, the target named is Keap1/Nrf2 (Homo sapiens, UniProt Q14145). The experiment in a line: disruptors of Keap1 binding to Nrf2 peptide – biochemical, fluorescence polarization, cherry-picked samples, dose response (AID 588683).
Keap1/Nrf2, sequence (Q16236 whole entry): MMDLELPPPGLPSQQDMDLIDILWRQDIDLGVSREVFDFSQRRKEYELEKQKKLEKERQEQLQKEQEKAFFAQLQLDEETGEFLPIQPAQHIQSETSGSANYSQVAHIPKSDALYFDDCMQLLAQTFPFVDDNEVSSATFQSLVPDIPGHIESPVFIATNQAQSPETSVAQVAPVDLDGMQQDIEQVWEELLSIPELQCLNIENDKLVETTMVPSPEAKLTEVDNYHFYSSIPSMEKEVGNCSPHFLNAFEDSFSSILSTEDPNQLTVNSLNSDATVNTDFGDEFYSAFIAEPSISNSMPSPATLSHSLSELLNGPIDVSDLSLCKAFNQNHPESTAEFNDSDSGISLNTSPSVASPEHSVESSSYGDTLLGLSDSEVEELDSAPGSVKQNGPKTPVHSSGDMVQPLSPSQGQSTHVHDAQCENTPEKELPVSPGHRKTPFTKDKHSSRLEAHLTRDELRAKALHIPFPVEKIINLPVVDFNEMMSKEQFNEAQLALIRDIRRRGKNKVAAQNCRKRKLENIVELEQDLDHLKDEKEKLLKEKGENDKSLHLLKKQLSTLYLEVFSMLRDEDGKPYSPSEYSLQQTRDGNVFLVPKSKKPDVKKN
Keap1/Nrf2, sequence (Q14145 whole entry): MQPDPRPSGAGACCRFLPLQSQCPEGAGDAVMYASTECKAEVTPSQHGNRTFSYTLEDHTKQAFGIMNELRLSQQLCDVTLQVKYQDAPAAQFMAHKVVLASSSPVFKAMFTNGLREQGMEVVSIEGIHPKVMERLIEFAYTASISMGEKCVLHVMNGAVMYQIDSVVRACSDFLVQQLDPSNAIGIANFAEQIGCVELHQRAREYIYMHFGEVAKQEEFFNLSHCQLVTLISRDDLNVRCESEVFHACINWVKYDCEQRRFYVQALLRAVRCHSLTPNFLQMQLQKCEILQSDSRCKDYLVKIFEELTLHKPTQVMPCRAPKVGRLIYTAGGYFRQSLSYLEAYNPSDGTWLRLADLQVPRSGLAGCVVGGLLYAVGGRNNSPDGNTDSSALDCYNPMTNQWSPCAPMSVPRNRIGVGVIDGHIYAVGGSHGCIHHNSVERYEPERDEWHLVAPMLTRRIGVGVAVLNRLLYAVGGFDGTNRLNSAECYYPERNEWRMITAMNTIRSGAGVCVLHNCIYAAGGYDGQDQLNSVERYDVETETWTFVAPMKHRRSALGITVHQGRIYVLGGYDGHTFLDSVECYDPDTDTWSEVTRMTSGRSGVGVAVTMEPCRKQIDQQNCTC
Test [15] addresses UDP-galactopyranose mutase (Mycobacterium tuberculosis, UniProt P9WIQ1). The experiment in a line: Inhibitors of Mycobacterium tuberculosis UDP-galactopyranose mutase (UGM) enzyme Measured in Biochemical System Using Plate Reader - 2105-02_Inhibitor_Dose_CherryPick_Activity. [Related pubchem assays (depositor defined):AID504439].
Test [16] concerns the target T6, Corticotropin-releasing factor receptor 2/Corticotropin-releasing factor-binding protein (Homo sapiens, UniProt P24387+Q13324).
T6 sequence (Q13324 whole entry): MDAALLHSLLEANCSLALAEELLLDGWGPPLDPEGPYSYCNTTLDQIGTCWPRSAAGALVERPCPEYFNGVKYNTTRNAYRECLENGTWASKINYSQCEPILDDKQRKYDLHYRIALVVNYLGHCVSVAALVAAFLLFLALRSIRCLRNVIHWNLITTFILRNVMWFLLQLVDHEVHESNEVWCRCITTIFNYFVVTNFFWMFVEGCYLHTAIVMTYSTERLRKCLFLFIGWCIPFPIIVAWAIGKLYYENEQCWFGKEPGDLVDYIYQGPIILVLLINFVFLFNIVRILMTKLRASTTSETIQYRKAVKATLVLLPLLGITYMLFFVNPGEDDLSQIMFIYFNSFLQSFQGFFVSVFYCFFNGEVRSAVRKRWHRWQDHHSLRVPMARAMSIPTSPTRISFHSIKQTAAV
T6 sequence (P24387 whole entry): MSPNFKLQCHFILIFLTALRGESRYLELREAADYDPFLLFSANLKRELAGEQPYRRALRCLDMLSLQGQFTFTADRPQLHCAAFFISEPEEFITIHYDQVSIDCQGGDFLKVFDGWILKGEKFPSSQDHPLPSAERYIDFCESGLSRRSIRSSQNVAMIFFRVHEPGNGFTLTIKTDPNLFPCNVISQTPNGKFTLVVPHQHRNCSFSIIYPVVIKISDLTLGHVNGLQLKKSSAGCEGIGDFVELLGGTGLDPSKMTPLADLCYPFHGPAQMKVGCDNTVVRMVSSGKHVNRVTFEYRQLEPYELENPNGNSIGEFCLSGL
As to the kind of experiment: activators of CRF receptor 2 with binding protein – uHTS hits, confirmation (AID 602473). In kind it is functional. Particulars: read-out: EC50_Mean.

Active and inactive are the calls of the source. Where only a bound is given, the exact number is not on record here.

Intestinal-type alkaline phosphatase (Mus musculus, UniProt P24822), sequence (P24822 whole entry): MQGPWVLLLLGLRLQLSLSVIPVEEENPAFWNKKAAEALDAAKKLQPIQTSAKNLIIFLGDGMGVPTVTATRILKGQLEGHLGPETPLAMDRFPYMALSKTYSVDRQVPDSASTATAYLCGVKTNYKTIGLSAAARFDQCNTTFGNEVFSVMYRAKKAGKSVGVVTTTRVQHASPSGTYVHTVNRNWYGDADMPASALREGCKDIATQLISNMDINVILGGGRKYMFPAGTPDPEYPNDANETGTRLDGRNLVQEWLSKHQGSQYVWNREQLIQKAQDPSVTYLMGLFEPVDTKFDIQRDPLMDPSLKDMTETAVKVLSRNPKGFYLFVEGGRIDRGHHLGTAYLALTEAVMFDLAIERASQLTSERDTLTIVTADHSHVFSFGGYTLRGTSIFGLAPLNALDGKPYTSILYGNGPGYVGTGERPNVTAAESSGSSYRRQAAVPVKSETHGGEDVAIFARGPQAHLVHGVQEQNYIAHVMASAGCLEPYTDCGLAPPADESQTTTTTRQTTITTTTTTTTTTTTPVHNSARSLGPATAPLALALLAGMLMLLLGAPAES
FAD-linked sulfhydryl oxidase ALR, sequence (P55789 whole entry): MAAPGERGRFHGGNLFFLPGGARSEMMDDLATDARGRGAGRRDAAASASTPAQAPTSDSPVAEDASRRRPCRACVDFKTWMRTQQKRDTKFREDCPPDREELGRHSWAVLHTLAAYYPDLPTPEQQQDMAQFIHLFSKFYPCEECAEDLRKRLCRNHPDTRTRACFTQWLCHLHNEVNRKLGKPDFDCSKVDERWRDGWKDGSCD
Dual specificity protein phosphatase 6, sequence (Q64346 whole entry): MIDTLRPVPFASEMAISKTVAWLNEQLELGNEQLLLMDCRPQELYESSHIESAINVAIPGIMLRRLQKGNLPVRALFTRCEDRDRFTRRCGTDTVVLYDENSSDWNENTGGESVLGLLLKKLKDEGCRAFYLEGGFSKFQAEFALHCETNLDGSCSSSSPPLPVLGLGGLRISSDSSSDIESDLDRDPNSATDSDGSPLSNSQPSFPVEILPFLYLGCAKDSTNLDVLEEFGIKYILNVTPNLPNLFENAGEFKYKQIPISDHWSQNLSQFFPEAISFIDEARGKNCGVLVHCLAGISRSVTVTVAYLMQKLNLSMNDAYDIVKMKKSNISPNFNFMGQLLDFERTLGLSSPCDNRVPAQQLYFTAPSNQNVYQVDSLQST
UDP-galactopyranose mutase, sequence (P9WIQ1 whole entry): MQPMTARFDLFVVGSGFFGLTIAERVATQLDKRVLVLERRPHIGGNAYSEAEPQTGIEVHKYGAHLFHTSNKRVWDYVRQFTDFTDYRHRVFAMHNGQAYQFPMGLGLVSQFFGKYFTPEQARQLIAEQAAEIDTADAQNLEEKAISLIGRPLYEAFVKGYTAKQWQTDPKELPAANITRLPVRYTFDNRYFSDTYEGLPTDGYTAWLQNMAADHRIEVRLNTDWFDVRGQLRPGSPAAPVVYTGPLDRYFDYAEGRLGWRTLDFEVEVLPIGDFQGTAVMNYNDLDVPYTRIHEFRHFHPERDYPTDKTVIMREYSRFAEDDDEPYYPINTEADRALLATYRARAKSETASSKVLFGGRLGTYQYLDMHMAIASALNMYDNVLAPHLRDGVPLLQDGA

As for `NS(=O)(=O)c1cc(C(=O)Nc2ccc3c(c2)CCC3)ccc1Cl`, the IC50 in test [1], in [2] and in [3] was > 100 µM (inactive) in each case. Also, the CC50 – broadly, the concentration giving 50% cytotoxicity – in [4] is 39 µM (active).

As to `Cc1ccc(N(C)S(=O)(=O)c2cccc(C(=O)Nc3nc4ccccc4[nH]3)c2)cc1`, the EC50 in the test with Streptococcus was 17.4 µM (active); on Streptokinase A, > 150 µM (not active); in test [5], 1.71 µM (active). For the same molecule, the AC50 – broadly, the concentration at which the activity in the assay is half-maximal – was 32.2 µM (active) in test [6] and 4.1 µM (active) in [7].

Take `O=C(Cn1c2ccccc2c2nc3n(c(=O)c21)CCS3)N1CCCC1`: in the test on Candida albicans, the AC50 is 2.91 µM (active).

As for `Cc1cccc(CC(Cc2nc3ccccc3[nH]2)c2nc3ccccc3[nH]2)c1` (centres undefined), the EC50 with Streptococcus was 26.7 µM (active); in test [8], 29.8 µM (active); at Streptokinase A it was > 150 µM (not active); in test [5] it was 9.33 µM (active); in [9], 28.9 µM (active); in test [10] it was 47.7 µM (active). Also, the EC50 in [11] is 62.1 µM (active). For the same molecule, in test [12], the IC50 (usually the point on the concentration scale where inhibition reaches its midpoint) is 12.6 µM (active).

On to `CC(C)CCn1c(=O)c2ccccc2c2ccccc2c1=O`, for which, in [13], the AC50 is 58.1 µM (active).

As to `Cc1ccc(N2C(=O)C(CC(=O)Nc3cccc(F)c3)N(C3CC3)C2=O)cc1` (centres undefined), in test [14], the AC50 was < 0.014 µM (active). In addition, the IC50 with MDCK was 52.3 µM (active).

Regarding `CN1/C(=C\C=C(C#N)C#N)C(C)(C)c2ccccc21`, the AC50 on Keap1/Nrf2 is 28.7 µM (active); in test [15], 114 µM (active). The EC50 in [16] is 10.8 µM (active).
